Source: publication PMC6766590, “Protocatechuic acid from chicory is bioavailable and undergoes partial glucuronidation and sulfation in healthy humans” (Food Science & Nutrition, 2019)
Where two headings read alike, the source gives them in different places.

Assays:
[1] = system: human fecal suspensions with gut microbiota; conditions: for Substrate recovered at the initial time point from the fecal suspensions: 0 hr, initial substrate dose 1 µmol; for Substrate amount in human fecal suspension: initial dose 1 µmol, 37°C anaerobic
Procedure: The column was a Zorbax SB‐C18 column (250 mm × 4.6 mm, 5.0 µm). […] Quantification of phenolic acids was carried out by an internal standard method using calibration curves. […] For each analytical run, a standard curve was prepared in the appropriate matrix (methanol, blank serum, urine, or feces) and used to determine the content of phenolic acids in chicory or biological samples. The detection limit for phenolic acids (10‐fold baseline noise) under the conditions used in this study was 1 ng/ml in serum and 5 ng/ml in urine and feces, and values below this concentration were reported as zero. […] Mycophenolic acid was selected as the internal standard.
Fresh feces (2 g) collected from human adults were mixed with 10 ml of brain–heart infusion medium, and the resulting solution was filtered with autoclaved gauze to remove the dregs before use. […] The mixture was fermented at 37°C under anaerobic conditions using the anaerobic chamber. […] All incubations were performed in triplicate. At the same time, the fecal suspension was incubated without phenolic acids as a negative control.

human gut microbiota = system: human gut microbiota; parameters: method as in Gonthier et al., 2006; conditions: ref Gonthier et al., 2006; cited from earlier work
mouse gut microbiota = system: mouse gut microbiota; parameters: method as in Lin et al., 2016; conditions: ref Lin et al., 2016; cited from earlier work
[2] = Single-dose pharmacokinetic trial, serum protocatechuic acid and conjugates after 150 g of chicory; assay type: in vivo, human
Procedure: (§1) A single-dose pharmacokinetic trial was conducted to evaluate the acute (24 hr) bioavailability of protocatechuic acid from chicory juice. Qualified participants were asked to consume foods low in phytochemicals for three days prior to the chicory juice intervention. Participants were also asked to consume a diet without vegetables, fruits, and plant-based beverages for the day prior to the intervention and the intervention day. The purpose of these dietary restrictions was to reduce any residual dietary phenolic compounds from the body (these compounds are typically cleared from blood, urine, and feces within 48 hr of consumption) and to ensure phenolic compounds present in the blood, urine, and feces samples collected during the intervention were derived from the chicory juice alone. Prior to administering the chicory juice, overnight fasting blood, urine, and feces (first-morning void) were collected at time 0 hr as the baseline. A single dose of chicory juice (150 g of chicory) was then orally ingested by each of the participants under close observation by the researcher in 5 min. No other foods or beverages were provided at this time. The chicory juice was prepared together approximately 10 min prior to this pharmacokinetic trial. One portion of chicory juice was kept to quantify the content of protocatechuic acid. […] Fecal samples from 0-24 hr after chicory juice drinking were collected. […] Mycophenolic acid was selected as the internal standard. The pharmacokinetic parameters of protocatechuic acid in the free, glucuronide, and sulfate conjugates were calculated using DAS 2.1 (BioGuider Co.), with a noncompartmental model: maximum serum concentrations (Cmax); time to achieve maximum serum concentrations (Tmax); the area under the concentration-time curve to 24 hr (AUC0-24); and terminal elimination half-life (T1/2z). The apparent bioavailability of protocatechuic acid together was quantified using AUC0-24 divided by its ingested amount. Urinary and fecal recoveries were calculated using the total content of urinary and fecal protocatechuic acid divided by its ingested amount.

[3] = Urinary excretion/recovery of protocatechuic acid and conjugates after 150 g of chicory; assay type: in vivo, human
Procedure: as §1

[4] = Fecal excretion/recovery of protocatechuic acid and conjugates after 150 g of chicory; assay type: in vivo, human
Procedure: as §1

[5] = parameters: method as in Wang, Zou, et al., 2011; conditions: ApoE^‐/‐ mice, single oral gavage 25 mg/kg; ref Wang, Zou, et al., 2011; cited from earlier work
[6] = parameters: method as in Chen et al., (2012); conditions: CF‐1 mice, oral 50 mg/kg; ref Chen et al., (2012); cited from earlier work

O=C(/C=C/c1ccc(O)c(O)c1)O[C@@H](C(=O)O)[C@@H](O)C(=O)O [Caftaric acid]
Substrate recovered at the initial time point from the fecal suspensions [1]: 91.5% ± 4.7%
Substrate amount in human fecal suspension ([1]; incubation time 0 h): 0.92 ± 0.05 µmol
Generation of protocatechuic acid by human gut microbiota metabolism (human gut microbiota): cannot generate protocatechuic acid

O=c1cc(-c2ccc(O)cc2)oc2cc(O)cc(O)c12 [apigenin]
Catabolism into protocatechuic acid by mouse gut microbiota (mouse gut microbiota): intensively catabolized into protocatechuic acid

O=C(O)/C=C/c1ccc(O)c(O)c1 [Caffeic acid]
Substrate recovered at the initial time point from the fecal suspensions [1]: 86.0 ± 3.0%
Substrate amount in human fecal suspension ([1]; incubation time 0 h): 0.86 ± 0.03 µmol
Substrate amount in human fecal suspension ([1]; incubation time 6 h): 0.16 ± 0.11 µmol

O=C(/C=C/c1ccc(O)c(O)c1)O[C@@H]1C[C@@](O)(C(=O)O)C[C@@H](O)[C@@H]1O [5‐caffeoylquinic acid]
Substrate recovered at the initial time point from the fecal suspensions [1]: 79.3 ± 5.7%
Substrate amount in human fecal suspension ([1]; incubation time 0 h): 0.79 ± 0.06 µmol

O=c1c(O)c(-c2ccc(O)c(O)c2)oc2cc(O)cc(O)c12 [quercetin]
Catabolism into protocatechuic acid by mouse gut microbiota (mouse gut microbiota): intensively catabolized into protocatechuic acid

O=C(O)c1cc(O)c(O)c(O)c1 [Gallic acid]
Substrate recovered at the initial time point from the fecal suspensions [1]: 95.8 ± 3.3%
Substrate amount in human fecal suspension ([1]; incubation time 0 h): 0.96 ± 0.03 µmol
Substrate amount in human fecal suspension ([1]; incubation time 6 h): 0.75 ± 0.14 µmol
Substrate amount in human fecal suspension ([1]; incubation time 12 h): 0.60 ± 0.18 µmol
Substrate amount in human fecal suspension ([1]; incubation time 24 h): 0.27 ± 0.23 µmol

O=C(O)c1ccc(O)c(O)c1 [PCA‐F, 3,4‐dihydroxybenzoic acid]
T1/2z, terminal elimination half‐life ([2]; 16 healthy adults, 150 g of chicory oral, serum): 1.72 ± 0.35 h
Recovery in blood circulation ([2]; 16 healthy adults, 150 g of chicory oral, AUC0‐24 divided by ingested amount): 15.60% ± 4.21%
half-life ([2]; both sexes, human, serum, 16 healthy adults, 150 g of chicory oral, read-out: T1/2z in serum (converted)): 1.72 ± 0.35 h
AUC(0-t) ([2]; both sexes, human, 16 healthy adults, 150 g of chicory oral, serum, read-out: AUC0−24, area under the concentration–time curve to 24 hr): 16.9 ± 3 µM·h
Cmax ([2]; both sexes, human, 16 healthy adults, 150 g of chicory oral, serum, read-out: Maximum (peak) serum concentration, Cmax): 3.27 µM
Tmax ([2]; both sexes, human, 16 healthy adults, 150 g of chicory oral, serum, read-out: Time of peak serum concentration): 1 h
Ingested protocatechuic acid recovered in the blood circulation, urine, and feces together ([2]; both, human, in vivo, po): 48.74%
Recovery in blood circulation ([2]; both, human, in vivo, po): about 23.79 % of the ingested dose
AUC(0-t) ([2]; female, human, oral, women, n = 8, 150 g of chicory, serum, read-out: AUC0−24): 17.2 ± 1.81 µM·h
Cmax ([2]; female, human, oral, women, n = 8, 150 g of chicory, serum, read-out: Cmax): 3.45 µM
half-life ([2]; female, human, oral, women, n = 8, 150 g of chicory, serum, read-out: T1/2z (converted)): 1.81 ± 0.48 h
Tmax ([2]; female, human, oral, women, n = 8, 150 g of chicory, serum, read-out: Tmax): 1 h
AUC(0-t) ([2]; male, human, oral, men, n = 8, 150 g of chicory, serum, read-out: AUC0−24): 16.6 ± 1.63 µM·h
Cmax ([2]; male, human, oral, men, n = 8, 150 g of chicory, serum, read-out: Cmax): 3.1 µM
half-life ([2]; male, human, oral, men, n = 8, 150 g of chicory, serum, read-out: T1/2z (converted)): 1.63 ± 0.04 h
Tmax ([2]; male, human, oral, men, n = 8, 150 g of chicory, serum, read-out: Tmax): 1 h
Recovery in blood circulation ([2]; men, n = 8, 150 g of chicory): 17.18 ± 4.05 % of the ingested dose
Recovery in blood circulation ([2]; women, n = 8, 150 g of chicory): 14.01 ± 3.74 % of the ingested dose
Recovery in urine ([3]; 16 healthy adults, 150 g of chicory oral, 0-24 hr urine): 12.17 % of the ingested dose
Time at which urinary excretion reached the plateau ([3]; 16 healthy adults, after chicory juice consumption): 6 h
dose excreted ([3]; human, 150 g of chicory (as juice), 16 healthy adults, 150 g of chicory oral, 0-24 hr urine): 5.02%
Recovery in urine ([3]; men, n = 8, 150 g of chicory): 5.66 ± 3.87 % of the ingested dose
Recovery in urine ([3]; women, n = 8, 150 g of chicory): 4.38 ± 2.28 % of the ingested dose
Recovery in feces ([4]; 16 healthy adults, 150 g of chicory oral, 0-24 hr feces): 12.79 % of the ingested dose
Mean content in feces ([4]; 16 healthy adults, feces 0-24 hr after 150 g of chicory): 8.00 ± 3.17 µmol
dose excreted ([4]; human, 150 g of chicory (as juice), 16 healthy adults, 150 g of chicory oral, 0-24 hr feces): 3.25%
Recovery in feces ([4]; men, n = 8, 150 g of chicory): 2.52 ± 0.87 % of the ingested dose
Recovery in feces ([4]; women, n = 8, 150 g of chicory): 3.97 ± 1.38 % of the ingested dose
Formation of protocatechuic acid from gallic, caffeic, 5‐caffeoylquinic, caftaric or chicoric acid in human fecal suspensions ([1]; 1 µmol substrate, up to 24 hr, listed as protocatechuic acid): could not be detected
Maximal level in plasma [5]: approximately 4.3 µM
Peak plasma level [6]: 73.6 µM
